Format in all cases: physicochemical
Series [1] is described as follows: Lyotropic behaviour: flooding technique on hot stage, optical microscopy under crossed polarised light. On the procedure:
(§1) Preliminary assessment of the phase behaviour of a selected compound was conducted using the ‘flooding’ technique. The flooding technique involves placing the compound between a coverslip and microscope slide and introducing water to the sample to establish a water concentration gradient through the sample. […] If the experiment is conducted on a hot stage, the temperature range over which the particular lyotropic phases exist can also be determined. The phase behaviour can be observed under normal or cross-polarised light using an optical microscope. […] For the purpose of the present invention it was especially useful for identifying which phase was present at the boundary with excess water.

A short description of series [2]: Flooding experiment: lyotropic phase formed in excess water at 40° C. Note: key: Hll denotes reverse hexagonal phase. The settings on record: sample maintained at 40° C., crossed polarised light, 200x. The procedure:
as §1
For the surfactant to be useful it preferably forms a viscous lyotropic phase in the presence of excess water. The lyotropic phase formed by the surfactant in excess water was determined by flooding experiments, in which a small amount of lipid (typically 5 mg) is placed between a glass microscope slide and coverslip and water introduced to the sample by capillary action, with the sample maintained at 40° C. by means of a hot stage. Observation under crossed polarised light at 200× magnification allows identification of the phase formed by the visible birefringent texture, or lack thereof.

Series [3] in a line: Water content of saturated lyotropic phase by Karl Fisher titration. The settings on record: 300 mg surfactant in excess water, equilibrated at 40° C.; mean of three samples ± SD. The procedure: The mass of water incorporated in the lyotropic phase was determined by preparing a 300 mg sample of surfactant in excess water, equilibrating at 40° C., and testing the water content of the lyotropic phase by Karl Fisher titration. Values reported are the mean of three separate samples i standard deviation, unless otherwise indicated.

Where [4] appears, read: flooding with water, temperature as stated per example.

Where “and” joins values, the source holds several entries; their conditions need not be identical. Equal entries are not always repeated. Entries after “also recorded” stand apart in the source; their conditions may differ. Where two headings read alike, the source gives them in different places.

In the case of `CCCCCCCC/C=C\CCCCCCCCNC(=O)NCCO` [Example 8, 1-(2-Hydroxyethyl)-3-(cis-octadec-9-enyl) urea], in series [1], the “Lyotropic phase formed at the interface with water” value (shortened to “Lyotropic phase formed”) was “isotropic phase” and the “Temperature at which the lyotropic phase forms / begins to form on contact with water” value is 59.5 °C. Moreover, the “Temperature at which the hexagonal phase is completely melted / sample completely isotropic” value in series [1] (flooding, heating) was about 67 °C.

As to `CC(C)CCCC(C)CCCC(C)CCCC(C)CC(=O)OCC(O)CO` (centres unmarked) [3,7,11,15-tetramethyl-hexadecanoic acid 1-glycerol ester], the “Phase formed in excess water” value in series [2] is reported as “Hll”. Besides, in series [3], the “% water (w/w) in saturated lyotropic phase” value (“% water (w/w)” for short) is given as 23.1 ± 3.2 % (w/w).

With `CC(C)CCCC(C)CCCC(C)CCCC(C)CCNC(N)=O` (centres unmarked) [Example 3, 3,7,11,15Tetramethyl-hexadecyl urea], the “Lyotropic phase formed” value in series [1] (setting [4]) is listed as “reverse hexagonal phase”. Moreover, in series [1] (flooding, heating), the “Temperature at which the hexagonal phase begins to melt” value (“Temperature … to melt” below) came to 72.6 °C, the “Temperature at which the hexagonal phase is completely melted / sample completely isotropic” value is 82.1 °C and the “Temperature at which the lyotropic phase forms / begins to form on contact with water” value was found to be 25 °C. Further, in series [2], the “Phase formed in excess water” value was “Hll”. In addition, in series [3], the “% water (w/w)” value was 28.4 ± 2.3 % (w/w).

On to `CCCCCCCC/C=C\CCCCCCCCNC(N)=O` [Example 10, cis-octadec-9enyl urea], for which the “Lyotropic phase formed” value in series [1] (setting [4]) is reported as “reverse hexagonal phase”. Further, in series [1] (flooding, heating), the “Temperature at which the hexagonal phase is completely melted / sample completely isotropic” value stood at 110 °C and the “Temperature at which the lyotropic phase forms / begins to form on contact with water” value is 61 °C.

As for `CC(C)CCCC(C)CCCC(C)CCCC(C)CCN(CCO)C(N)=O` (centres unmarked) [Example 1, 1-(3,7,11,15tetramethyl-hexadecyl)-1-(2-hydroxyethyl) urea], the “Lyotropic phase formed” value in series [1] (setting [4]) was “reverse hexagonal phase”. Besides, the “Temperature at which the hexagonal phase reappears on cooling” value in series [1] (flooding, cooling) worked out at 51.1 °C. Besides, in series [1] (flooding, heating), the “Temperature … to melt” value came to 50.9 °C, the “Temperature at which the hexagonal phase is completely melted / sample completely isotropic” value amounted to 58.1 °C and the “Temperature at which the lyotropic phase forms / begins to form on contact with water” value was 20 °C. In addition, the “Phase formed in excess water” value in series [2] is listed as “Hll”.

Take `CCCCCCCC/C=C\CCCCCCCCNC(=O)NC(N)=O` [Example 9, cis-octadec-9-enyl biuret]: the “Lyotropic phase formed” value in series [1] (setting [4]) is reported as “hexagonal phase”. Moreover, in series [1] (flooding, heating), the “Temperature at which the hexagonal phase is completely melted / sample completely isotropic” value was found to be 107 °C and the “Temperature at which the lyotropic phase forms / begins to form on contact with water” value is 85 °C.

Regarding `CC(C)CCCC(C)CCCC(C)CCCC(C)CCOC(=O)C(O)CO` (centres unmarked) [Example 6, 2,3-Dihydroxypropionic acid 3,7,11,15-tetramethyl-hexadecyl ester], the “Lyotropic phase formed” value in series [1] (setting [4]) is “reverse hexagonal phase”. Also, in series [1] (flooding, heating), the “Temperature … to melt” value is about 40 °C, the “Temperature at which the hexagonal phase is completely melted / sample completely isotropic” value came out at 48 °C and the “Temperature at which the lyotropic phase forms / begins to form on contact with water” value is recorded as “room temperature”. The “Phase formed in excess water” value in series [2] was “Hll”. Further, the “% water (w/w)” value in series [3] was 28.7 ± 2.5 % (w/w).

As to `CC(C)CCCC(C)CCCC(C)CCCC(C)CC(=O)NC(C)(CO)CO` (centres unmarked) [Example 7, 3,7,11,15-tetramethyl-hexadecanoic acid (1,1-bis-hydroxymethyl-ethyl)-amide], the “Lyotropic phase formed” value in series [1] (setting [4]) is “isotropic phase; also recorded: hexagonal phase”. In series [1] (flooding, heating), the “Temperature … to melt” value was 25.5 °C, the “Temperature at which the hexagonal phase is completely melted / sample completely isotropic” value stood at 26.7 °C and the “Temperature at which the lyotropic phase forms / begins to form on contact with water” value was 10-15 °C.

Regarding `CC(C)CCCC(C)CCCC(C)CCOC(=O)C(O)CO` (centres unmarked) [2,3-Dihydroxypropionic acid 3,7,11-trimethyl-dodecyl ester], in series [2], the “Phase formed in excess water” value is given as “Hll”. For the same compound, the “% water (w/w)” value in series [3] is on record as 24.7 ± 0.7 % (w/w).

Turning to `CCCCC/C=C\C/C=C\CCCCCCCCNC(N)=O` [Example 11, cis, cis-octadec-9,12-dienyl urea], the “Lyotropic phase formed” value in series [1] (setting [4]) is “reverse hexagonal phase”. Besides, in series [1] (flooding, heating), the “Temperature at which the hexagonal phase is completely melted / sample completely isotropic” value was 92-93 °C and the “Temperature at which the lyotropic phase forms / begins to form on contact with water” value came to 53 °C.

Consider `CC(C)CCCC(C)CCCC(C)CCNC(N)=O` (centres unmarked) [Example 4, 3,7,11-Trimethyl-dodecyl urea], for which, in series [1] (setting [4]), the “Lyotropic phase formed” value is “reverse hexagonal phase”. Moreover, in series [1] (flooding, heating), the “Temperature … to melt” value stood at 55 °C, the “Temperature at which the hexagonal phase is completely melted / sample completely isotropic” value is over 70 °C and the “Temperature at which the lyotropic phase forms / begins to form on contact with water” value came out at 30 °C. The “Phase formed in excess water” value in series [2] is recorded as “Hll”. In addition, the “% water (w/w)” value in series [3] is 8.1 ± 2.5 % (w/w).

For the compound `CCCCCCCC/C=C\CCCCCCCCOC(=O)C(O)CO` (centres unmarked) [Example 5, 2,3-Dihydroxypropionic acid octadec-9-enyl ester], in series [1] (flooding, cooling), the “Temperature at which the hexagonal phase reappears on cooling” value came to 77 °C and the “Temperature at which the isotropic cubic phase reforms on cooling” value came to 40 °C. Further, in series [1] (flooding, heating), the “Temperature … to melt” value worked out at 65 °C, the “Temperature at which the hexagonal phase is completely melted / sample completely isotropic” value stood at 80 °C, the “Temperature at which the isotropic cubic phase has disappeared” value was 70 °C and the “Temperature at which the lyotropic phase forms / begins to form on contact with water” value was determined as 30 °C. Moreover, in series [2], the “Phase formed in excess water” value was “Hll”. Also, the “% water (w/w)” value in series [3] was 16.8 ± 3.9 % (w/w).

With `CC(C)CCCC(C)CCCC(C)CCCC(C)CCNC(=O)NCCO` (centres unmarked) [Example 2, 1-(3,7,11,15-tetramethyl-hexadecyl)-3-(2-hydroxyethyl) urea], in series [1] (setting [4]), the “Lyotropic phase formed” value was “reverse hexagonal phase”. Further, the “Temperature at which the hexagonal phase reappears on cooling” value in series [1] (flooding, cooling) stood at 44.1 °C. In series [1] (flooding, heating), the “Temperature … to melt” value was found to be 40.4 °C; the “Temperature at which the hexagonal phase is completely melted / sample completely isotropic” value is 58 °C and 57.3 °C; the “Temperature at which the lyotropic phase forms / begins to form on contact with water” value is “below 8 °C”. For the same compound, the “Phase formed in excess water” value in series [2] is “Hll”. Moreover, the “% water (w/w)” value in series [3] is on record as 14.3 ± 4.6 % (w/w).

Values taken from patent US20050249665A1, “Urea-, glycerate- and, hydroxyamide-headed hydrocarbon chain lyotropic phases forming surfactants” (DBL Australia Pty Ltd., priority 2002, published 2005).
